Where “and” joins values, the source holds several entries; their conditions need not be identical. Equal entries are not always repeated.
Details: Crystal, Calculated from knudsen effusion weight loss

[Cl][Ga]([Cl])[Cl] [gallium chloride]
Details | vapor or sublimation pressure
289 K | 0.004266 kPa
290.5 K | 0.005754 kPa
292 K | 0.006166 kPa
293 K | 0.006761 kPa and 0.006918 kPa
293.5 K | 0.007413 kPa
294 K | 0.007943 kPa
295.5 K | 0.00912 kPa
296 K | 0.008913 kPa
297 K | 0.01148 kPa and 0.01072 kPa and 0.01047 kPa
298 K | 0.01175 kPa
298.5 K | 0.01175 kPa
299 K | 0.01318 kPa
299.5 K | 0.01349 kPa
300.5 K | 0.01413 kPa and 0.0138 kPa
301 K | 0.0166 kPa
302 K | 0.01698 kPa
303 K | 0.01905 kPa and 0.0182 kPa
303.5 K | 0.02089 kPa
304.5 K | 0.02042 kPa
305 K | 0.02344 kPa and 0.02089 kPa
306 K | 0.02512 kPa and 0.02754 kPa
307 K | 0.02884 kPa and 0.0263 kPa
308 K | 0.0309 kPa and 0.02951 kPa and 0.02818 kPa

[F][Ga]([F])[F] [gallium fluoride (GaF3)]
Details | vapor or sublimation pressure
808 K | 4.677e-05 kPa
810 K | 3.981e-05 kPa
813 K | 4.677e-05 kPa
816 K | 4.677e-05 kPa
818 K | 6.31e-05 kPa
820 K | 5.495e-05 kPa
822 K | 6.31e-05 kPa
827 K | 9.55e-05 kPa and 7.943e-05 kPa
830 K | 9.55e-05 kPa
835 K | 0.0001096 kPa
836 K | 0.0001413 kPa
837 K | 0.0001096 kPa
839 K | 0.0001259 kPa
842 K | 0.0002239 kPa
843 K | 0.0001413 kPa
844 K | 0.000257 kPa
845 K | 0.0001905 kPa and 0.0002818 kPa
846 K | 0.000166 kPa
847 K | 0.0001738 kPa and 0.000257 kPa
852 K | 0.0002692 kPa
853 K | 0.0002188 kPa and 0.0003715 kPa
854 K | 0.0004074 kPa
855 K | 0.0002344 kPa and 0.0004677 kPa
856 K | 0.0002512 kPa
857 K | 0.0003715 kPa
859 K | 0.0006026 kPa
861 K | 0.0003802 kPa
862 K | 0.0003162 kPa
863 K | 0.0005888 kPa and 0.0005495 kPa
864 K | 0.0003311 kPa
866 K | 0.0005495 kPa
867 K | 0.0003802 kPa
869 K | 0.0005248 kPa
870 K | 0.0008913 kPa
871 K | 0.0004365 kPa and 0.0008128 kPa
872 K | 0.0004571 kPa and 0.0008128 kPa
874 K | 0.0007413 kPa
876 K | 0.000537 kPa
878 K | 0.0007586 kPa
880 K | 0.0006166 kPa and 0.001096 kPa
881 K | 0.001349 kPa
882 K | 0.0006457 kPa
884 K | 0.0009772 kPa and 0.001259 kPa
885 K | 0.0007943 kPa and 0.001175 kPa
890 K | 0.0008511 kPa and 0.000871 kPa and 0.001585 kPa
893 K | 0.001413 kPa and 0.002089 kPa
894 K | 0.001202 kPa and 0.001862 kPa and 0.001622 kPa
895 K | 0.001096 kPa
898 K | 0.002138 kPa
900 K | 0.001349 kPa
901 K | 0.001862 kPa and 0.002042 kPa
902 K | 0.002399 kPa
903 K | 0.00166 kPa and 0.002884 kPa
904 K | 0.001622 kPa
907 K | 0.002818 kPa
909 K | 0.002455 kPa and 0.001778 kPa
910 K | 0.00389 kPa and 0.002818 kPa
911 K | 0.002138 kPa
913 K | 0.002188 kPa and 0.003467 kPa
916 K | 0.002455 kPa and 0.003802 kPa
918 K | 0.00309 kPa
919 K | 0.00389 kPa
920 K | 0.00537 kPa
921 K | 0.002884 kPa
923 K | 0.003236 kPa
924 K | 0.005012 kPa
925 K | 0.005248 kPa
928 K | 0.007079 kPa
929 K | 0.005495 kPa
934 K | 0.007413 kPa
935 K | 0.007244 kPa
938 K | 0.00955 kPa
939 K | 0.007413 kPa
942 K | 0.00955 kPa
945 K | 0.01023 kPa
946 K | 0.009333 kPa
947 K | 0.01288 kPa
948 K | 0.01175 kPa
955 K | 0.01445 kPa
956 K | 0.01413 kPa
958 K | 0.01698 kPa and 0.01318 kPa

[I][Ga]([I])[I] [gallium iodide]
Details | vapor or sublimation pressure
344.5 K | 0.0001445 kPa
346 K | 0.0001698 kPa and 0.0001445 kPa
347 K | 0.000195 kPa
348 K | 0.000195 kPa
348.5 K | 0.0001445 kPa
349 K | 0.000195 kPa
349.5 K | 0.0002455 kPa and 0.0002951 kPa
350 K | 0.000195 kPa
351.5 K | 0.0003388 kPa
352 K | 0.0002455 kPa
352.5 K | 0.0003388 kPa
354 K | 0.0004365 kPa and 0.0003388 kPa
355 K | 0.0003388 kPa and 0.000389 kPa
356 K | 0.0004365 kPa
357 K | 0.0004365 kPa
357.5 K | 0.0006761 kPa and 0.0004898 kPa
359.5 K | 0.000537 kPa
361.5 K | 0.0006761 kPa
362 K | 0.000871 kPa
364 K | 0.0009333 kPa and 0.0007762 kPa
365.5 K | 0.0009772 kPa
367 K | 0.001148 kPa
367.5 K | 0.00123 kPa
368.5 K | 0.001122 kPa and 0.00123 kPa
370 K | 0.001413 kPa
372 K | 0.001445 kPa and 0.00166 kPa
372.5 K | 0.00166 kPa
373 K | 0.001905 kPa and 0.001738 kPa
374.5 K | 0.002042 kPa and 0.001995 kPa
375.5 K | 0.002291 kPa
377 K | 0.002399 kPa
377.5 K | 0.002692 kPa
378 K | 0.002951 kPa
379 K | 0.002951 kPa
380 K | 0.002951 kPa
381.5 K | 0.003715 kPa
382 K | 0.004266 kPa
383 K | 0.00389 kPa
383.5 K | 0.004169 kPa
384 K | 0.004898 kPa
387.5 K | 0.006607 kPa and 0.006026 kPa and 0.00631 kPa
389.5 K | 0.007244 kPa
390.5 K | 0.00871 kPa and 0.007244 kPa
391.5 K | 0.00871 kPa
393.5 K | 0.01096 kPa and 0.01 kPa
394 K | 0.009772 kPa
397 K | 0.0138 kPa
398 K | 0.01349 kPa
400.5 K | 0.01778 kPa
401 K | 0.01698 kPa

From the NIST ThermoML archive (doi:10.1021/je900276q)
